Experimental data taken from ChEMBL document CHEMBL1201862, “PubChem BioAssay data set” (2004).
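Interpolation was linear, between the two tested concentrations surrounding the appropriate level; five concentrations were tested over 48 hours in 96-well plates. Here, GI50 denotes the concentration required for 50% inhibition of growth.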 Active and inactive are the calls of the source. Cut-off read from the data, not from the text of the source: active = GI50 up to about 1.1 µM and inactive = higher.

Legend:
Assay in all cases: NCI-60 cell line screen, 48 h
[1] = system: A549
[2] = system: SNB-19
[3] = system: SK-MEL-5
[4] = system: OVCAR-4
[5] = system: NCI-H23
[6] = system: U-251
[7] = system: HL-60
[8] = system: RPMI-8226
[9] = system: Malme-3M
[10] = system: 786-0
[11] = system: IGROV-1
[12] = system: UACC-257
[13] = system: ACHN
[14] = system: SK-MEL-28
[15] = system: HCC 2998
[16] = system: SF-295
[17] = system: RXF 393
[18] = system: KM12
[19] = system: EKVX
[20] = system: OVCAR-3
[21] = system: K562
[22] = system: OVCAR-8
[23] = system: CCRF-CEM
[24] = system: LOX IMVI
[25] = system: MDA-MB-231
[26] = system: COLO 205
[27] = system: UACC-62
[28] = system: MCF7
[29] = system: HOP-92
[30] = system: CAKI-1
[31] = system: NCI-H460
[32] = system: MOLT-4
[33] = system: NCI-H226
[34] = system: SF-268
[35] = system: T47D
[36] = system: HCT-116
[37] = system: SN12C
[38] = system: HT-29
[39] = system: TK-10
[40] = system: HOP-62
[41] = system: SK-OV-3
[42] = system: BT-549
[43] = system: MDA-MB-435
[44] = system: SK-MEL-2
[45] = system: Hs-578T
[46] = system: A498
[47] = system: SNB-75
[48] = system: DU-145
[49] = system: UO-31
[50] = system: MDA-N
[51] = system: HCT-15
[52] = system: PC-3
[53] = system: NCI/ADR-RES
[54] = system: SW-620
[55] = system: OVCAR-5
[56] = system: M14
[57] = system: SF-539
[58] = system: NCI-H522
[59] = system: SR

## CC(C)=CCC/C(C)=C/CC/C(C)=C/CSc1ccc(Cl)cc1C(=O)O
[1]
  GI50: 16.5 µM (inactive)
[2]
  GI50: 18.4 µM (inactive)
[3]
  GI50: 23.4 µM (inactive)
[4]
  GI50: 27.7 µM (inactive)
[5]
  GI50: 17.7 µM (inactive)
[6]
  GI50: 17.5 µM (inactive)
[7]
  GI50: 22.2 µM (inactive)
[8]
  GI50: 22.6 µM (inactive)
[9]
  GI50: 19.2 µM (inactive)
[10]
  GI50: 17.1 µM (inactive)
[11]
  GI50: 17.5 µM (inactive)
[12]
  GI50: 27.8 µM (inactive)
[13]
  GI50: 18.5 µM (inactive)
[14]
  GI50: 17.3 µM (inactive)
[15]
  GI50: 20.5 µM (inactive)
[16]
  GI50: 17.4 µM (inactive)
[17]
  GI50: 24.3 µM (inactive)
[18]
  GI50: 17 µM (inactive)
[19]
  GI50: 18.6 µM (inactive)
[20]
  GI50: 17 µM (inactive)
[21]
  GI50: 25.5 µM (inactive)
[22]
  GI50: 20 µM (inactive)
[23]
  GI50: 21.2 µM (inactive)
[24]
  GI50: 18.1 µM (inactive)
[25]
  GI50: 27 µM (inactive)
[26]
  GI50: 22.4 µM (inactive)
[27]
  GI50: 17.9 µM (inactive)
[28]
  GI50: 17.3 µM (inactive)
[29]
  GI50: 22.2 µM (inactive)
[30]
  GI50: 25.1 µM (inactive)
[31]
  GI50: 18.7 µM (inactive)
[32]
  GI50: 23.1 µM (inactive)
[33]
  GI50: 17.4 µM (inactive)
[34]
  GI50: 17.9 µM (inactive)
[35]
  GI50: > 10 µM (inactive)
[36]
  GI50: 17.8 µM (inactive)
[37]
  GI50: 26.3 µM (inactive)
[38]
  GI50: 21.1 µM (inactive)
[39]
  GI50: 19.2 µM (inactive)
[40]
  GI50: 14.9 µM (inactive)
[41]
  GI50: 17.3 µM (inactive)
[42]
  GI50: 20.2 µM (inactive)
[43]
  GI50: 20.2 µM (inactive)
[44]
  GI50: 15 µM (inactive)
[45]
  GI50: 23.2 µM (inactive)
[46]
  GI50: 19.8 µM (inactive)
[47]
  GI50: 18.7 µM (inactive)
[48]
  GI50: 23.9 µM (inactive)
[49]
  GI50: 17.5 µM (inactive)
[50]
  GI50: 29.4 µM (inactive)
[51]
  GI50: 20.4 µM
[52]
  GI50: 16.2 µM (inactive)
[53]
  GI50: > 10 µM (inactive)
[54]
  GI50: 22 µM (inactive)
[55]
  GI50: 18.9 µM (inactive)
[56]
  GI50: 19.6 µM (inactive)
[57]
  GI50: 18.9 µM (inactive)

## CC1=NC(=Cc2ccc(Cl)cc2)C(=O)N1n1c(-c2ccccc2)nc2ccccc2c1=O
[1]
  GI50: 39.8 µM (inactive)
[2]
  GI50: 48.6 µM (inactive)
[3]
  GI50: 36.7 µM (inactive)
[5]
  GI50: 26.3 µM (inactive)
[7]
  GI50: 26.3 µM (inactive)
[8]
  GI50: 34.1 µM (inactive)
[9]
  GI50: 33.2 µM (inactive)
[10]
  GI50: 40.6 µM (inactive)
[11]
  GI50: 31.6 µM (inactive)
[12]
  GI50: 25 µM (inactive)
[13]
  GI50: 22.2 µM (inactive)
[14]
  GI50: 51.4 µM (inactive)
[15]
  GI50: 38.8 µM (inactive)
[16]
  GI50: 40.9 µM (inactive)
[58]
  GI50: 6.92 µM (inactive)
[18]
  GI50: 36.4 µM (inactive)
[19]
  GI50: 27.2 µM (inactive)
[21]
  GI50: 34.8 µM (inactive)
[22]
  GI50: 39.4 µM (inactive)
[23]
  GI50: 37.8 µM (inactive)
[24]
  GI50: 38.5 µM (inactive)
[25]
  GI50: 49.7 µM (inactive)
[26]
  GI50: 32.4 µM (inactive)
[27]
  GI50: 33.2 µM (inactive)
[28]
  GI50: 28.2 µM (inactive)
[30]
  GI50: 17.8 µM (inactive)
[31]
  GI50: 23 µM (inactive)
[32]
  GI50: 34.5 µM (inactive)
[33]
  GI50: > 100 µM (inactive)
[34]
  GI50: 51.9 µM (inactive)
[35]
  GI50: 25.4 µM (inactive)
[36]
  GI50: 34.8 µM (inactive)
[37]
  GI50: 43.4 µM (inactive)
[38]
  GI50: 37 µM (inactive)
[39]
  GI50: 51.6 µM (inactive)
[40]
  GI50: 47.2 µM (inactive)
[41]
  GI50: 38.5 µM (inactive)
[42]
  GI50: 40.6 µM (inactive)
[43]
  GI50: 43.4 µM (inactive)
[45]
  GI50: 18.1 µM (inactive)
[46]
  GI50: 24.6 µM (inactive)
[47]
  GI50: 38.6 µM (inactive)
[48]
  GI50: 38.1 µM (inactive)
[49]
  GI50: 37.2 µM (inactive)
[50]
  GI50: 35.1 µM (inactive)
[51]
  GI50: 44.4 µM
[52]
  GI50: 24.3 µM (inactive)
[59]
  GI50: 33.5 µM (inactive)
[54]
  GI50: 57.1 µM (inactive)
[56]
  GI50: 39.4 µM (inactive)
[57]
  GI50: 35.1 µM (inactive)

## O=C1C(=Cc2ccccc2O)N=C(c2ccccc2)N1n1c(-c2ccccc2)nc2ccccc2c1=O
[1]
  GI50: 33.6 µM (inactive)
[2]
  GI50: 48 µM (inactive)
[3]
  GI50: 19.1 µM (inactive)
[5]
  GI50: 35.4 µM (inactive)
[7]
  GI50: 15.2 µM (inactive)
[8]
  GI50: 38.6 µM (inactive)
[9]
  GI50: 45.7 µM (inactive)
[10]
  GI50: 42.1 µM (inactive)
[11]
  GI50: 34.4 µM (inactive)
[12]
  GI50: 29.9 µM (inactive)
[13]
  GI50: 29.5 µM (inactive)
[14]
  GI50: 33.8 µM (inactive)
[15]
  GI50: 30.7 µM (inactive)
[16]
  GI50: 22.8 µM (inactive)
[58]
  GI50: 33.1 µM (inactive)
[18]
  GI50: 30.3 µM (inactive)
[19]
  GI50: 30.6 µM (inactive)
[21]
  GI50: 29.6 µM (inactive)
[22]
  GI50: 31.3 µM (inactive)
[23]
  GI50: 28.4 µM (inactive)
[24]
  GI50: 41.7 µM (inactive)
[25]
  GI50: 42.2 µM (inactive)
[26]
  GI50: 35.7 µM (inactive)
[27]
  GI50: 33.7 µM (inactive)
[28]
  GI50: 17.2 µM (inactive)
[30]
  GI50: 25.8 µM (inactive)
[31]
  GI50: 29.8 µM (inactive)
[32]
  GI50: 26.7 µM (inactive)
[33]
  GI50: 31.6 µM (inactive)
[34]
  GI50: 21.3 µM (inactive)
[35]
  GI50: 26.2 µM (inactive)
[36]
  GI50: 32.3 µM (inactive)
[37]
  GI50: 43 µM (inactive)
[38]
  GI50: 37.2 µM (inactive)
[39]
  GI50: 50.2 µM (inactive)
[40]
  GI50: 31.3 µM (inactive)
[41]
  GI50: 48.3 µM (inactive)
[42]
  GI50: 28.8 µM (inactive)
[43]
  GI50: 36.8 µM (inactive)
[45]
  GI50: 35.6 µM (inactive)
[46]
  GI50: 21.5 µM (inactive)
[47]
  GI50: 23.4 µM (inactive)
[48]
  GI50: 35.5 µM (inactive)
[49]
  GI50: 27.5 µM (inactive)
[50]
  GI50: 32.4 µM (inactive)
[51]
  GI50: 40.4 µM
[52]
  GI50: 34 µM (inactive)
[59]
  GI50: 32.9 µM (inactive)
[54]
  GI50: 45.8 µM (inactive)
[56]
  GI50: 19.3 µM (inactive)
[57]
  GI50: 21.8 µM (inactive)
